Read-outs that look alike come from different tables or passages of the source. Bridge positions count the residues as written; N and C are the ends. Square brackets hold non-standard residues; d marks the D form. Peptide text beside a SMILES is read from it. * marks the point of attachment. Isonicotinoyl(2-Ph) = O=C(c1ccnc(-c2ccccc2)c1)*; X3 = O=C(c1ccnc(-c2cccc(Cl)c2)c1)*; X1 = CC[C@H](C)CCCCC(=O)*; dDap = NC[C@@H](N)C(=O)O; Dab = NCC[C@H](N)C(=O)O; Dap = NC[C@H](N)C(=O)O
How the values were obtained:
[1] = Cytotoxicity assay (LDH release), hRPTEC; format: cell-based, human; conditions: for CC50 at 24 h: human
Outline: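 hRPTEC grown 72 h in REGM, then exposed to compounds at 100, 67, 44, 30, 20 and 13 micromolar for 24 h at 37° C, 5% CO2. LDH released into supernatant measured; TC50 (micromolar) derived. Compounds tested as trifluoroacetate salts unless otherwise noted.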

[2] = tested on: KP-3700, ESBL+ clinical isolate of Klebsiella pneumoniae; test: Minimum inhibitory concentration (MIC, CLSI), KP-3700; format: cell-based; conditions: K. pneumoniae KP-3700; overnight incubation, lower of duplicate values; trifluoroacetate salt (Example 1 and PMB sulfate)
Procedure: (§1) Minimum bactericidal concentration (MBC, mg/L), minimum inhibitory concentration (MIC, mg/L), and human renal proximal tubule epithelial cell line cytotoxicity concentration 50% (hRPTEC, TC50, micromolar) for compounds of Formula I are listed in Table 2. The compounds of Formula I were tested as the corresponding trifluoroacetate salt except for Example 1 which was tested as the sulfate salt. For Table 2 below: PMB=polymyxin B as the sulfate salt (Bedford Laboratories, pharmaceutical grade); PMB1=polymyxin B1 as the trifluoroacetate salt; Nona=polymyxin B nonapeptide as the trifluoroacetate salt. PMB1 and Nona were prepared using the solid phase methodology described in the experimental section herein.
(§2) The in vitro antibacterial activity of compounds of Formula I was evaluated by MIC testing according to Clinical and Laboratory Standards Institute (CLSI). See: Clinical and Laboratory Standards Institute. Methods for Dilution Antimicrobial Susceptibility Tests for Bacteria that Grow Aerobically; Approved Standard-Eighth Edition. CLSI document M7-A8 [ISBN 1-56238-689-1]. Clinical and Laboratory Standards Institute, 940 West Valley Road, Suite 1400, Wayne, Pa. 19087-1898 USA, 2006; also Clinical and Laboratory Standards Institute. Performance Standards for Antimicrobial Susceptibility Testing; Twentieth Informational Supplement. CLSI document M100-S20 [ISBN 1-56238-716-2]. Clinical and Laboratory Standards Institute. Methods for Determining Bactericidal Activity of Antimicrobial Agents; Approved Guideline. CLSI document M26-A (ISBN 1-56238-384-1). CLSI, 940 West Valley Road, Suite 1400, Wayne, Pa. 19087-1898 USA, 1999.
(§3) The MIC determination is a standard laboratory method for evaluating the antibacterial activity of a compound. The MIC represents the lowest drug concentration that inhibits visible growth of bacteria following overnight incubation. […] Typically, the drug concentration range is broken down into 2-fold increments (e.g. 0.06 mg/L, 0.12 mg/L, 0.25 mg/L, 0.50 mg/L, 1.0 mg/L, etc.) and the various drug concentrations are all individually incubated overnight with approximately the same number of bacteria. The MIC is then determined by visually inspecting the drug effect at each concentration, and identifying the lowest drug concentration that has inhibited bacterial growth as compared to the drug free control. Typically, bacteria continue to grow at drug concentrations lower than the MIC and don't grow at concentrations at and above the MIC.
(§4) The MIC values described in Table 2 below were derived from assays wherein each test compound was evaluated in duplicate. In cases where the duplicate values varied by 0-2-fold, the lower of the two values was reported below. Generally speaking, if the duplicate values varied by more than 2-fold, the assay was considered non-valid and was repeated until the variation between duplicate runs was ≦2-fold. In line with the CLSI guidelines referred to above, both control organisms and reference compounds were utilized in each MIC assay to provide proper quality control. MIC values generated with these control organisms and reference compounds were required to fall within a defined range for the assay to be considered valid and be included herein. Those skilled in the art will recognize that MIC values can and do vary from experiment to experiment. Generally speaking, it should be recognized that MIC values often vary +/−2-fold from experiment to experiment. While a single MIC is reported for each compound and each microorganism, the reader should not conclude that each compound was only tested once. Several of the compounds were subjected to multiple tests. The data reported in Table 2 is reflective of the compounds relative activity and different MICs may have been generated on these occasions in line with the guidelines described above.
The following bacterial strains were used in these MIC determinations:
KP-3700 is an ESBL+clinical isolate of Klebsiella pneumoniae obtained in 2006; and […]

[3] = tested on: Pseudomonas aeruginosa strain PA01; format: cell-based
Outline: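 CLSI broth dilution against P. aeruginosa PA01 with two-fold concentration steps and overnight incubation; MIC is lowest concentration visibly inhibiting growth versus drug-free control, in mg/L. Compounds tested as trifluoroacetate salts, in duplicate, lower value reported if within 2-fold; control organisms and reference compounds included.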

[4] = tested on: AB-1649, polymyxin-resistant clinical isolate of Acinetobacter baumannii; format: cell-based
Outline: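 Broth dilution MIC per CLSI against the polymyxin-resistant A. baumannii isolate, 2-fold dilutions, overnight incubation, visual read of lowest concentration inhibiting growth. Run in duplicate, lower value reported when within 2-fold; MBC per CLSI M26-A guideline.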

[5] = tested on: AB-3167, clinical isolate of Acinetobacter baumannii; format: cell-based
Outline: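 Broth dilution MIC per CLSI (M7-A8, M100-S20, M26-A for bactericidal), 2-fold dilution series, overnight incubation, visual read of lowest concentration inhibiting growth versus drug-free control. Duplicates run; lower value reported if within 2-fold, otherwise repeated. Compounds tested as trifluoroacetate salts; QC strains and reference compounds required in range.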

[6] = tested on: PA-1646, polymyxin-resistant clinical isolate of Pseudomonas aeruginosa; format: cell-based
Outline: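 Broth dilution MIC per CLSI with 2-fold concentration steps, read visually after overnight incubation as lowest concentration inhibiting growth; duplicates within 2-fold, lower value reported, with QC strains and reference compounds. Compounds tested as trifluoroacetate salts, polymyxin B as sulfate.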

[7] = tested on: EC-1, mouse virulent strain of Escherichia coli; format: cell-based; conditions: E. coli EC-1; overnight incubation, lower of duplicate values; trifluoroacetate salt (Example 1 and PMB sulfate)
Outline: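 Compounds were tested mostly as trifluoroacetate salts. Duplicate CLSI broth-dilution MICs were read visually after overnight incubation over 2-fold dilutions, with the lower of duplicates within 2-fold taken. QC organisms and reference drugs were included in each run.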

[8] = tested on: KP-5016, ESBL+ clinical isolate of Klebsiella pneumoniae (SHV-5); test: Minimum inhibitory concentration (MIC, CLSI), KP-5016; format: cell-based; conditions: K. pneumoniae KP-5016; overnight incubation, lower of duplicate values; trifluoroacetate salt (Example 1 and PMB sulfate)
Procedure: as §1, §2, §3, §4
The following bacterial strains were used in these MIC determinations: […]

[9] = tested on: AB-1649, polymyxin-resistant clinical isolate of Acinetobacter baumannii; format: cell-based; remark: listed apart in the source
Outline: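 MIC and MBC were measured by CLSI broth dilution methods (M7-A8, M100-S20, M26-A) against a polymyxin-resistant clinical isolate and reported in mg/L. Compounds were tested as trifluoroacetate salts, with one exception tested as the sulfate.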

[10] = tested on: PA-1646, polymyxin-resistant clinical isolate of Pseudomonas aeruginosa; format: cell-based; remark: listed apart in the source
Outline: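 Broth dilution MIC and bactericidal (MBC) testing per CLSI methods (M7-A8, M100-S20, M26-A) against polymyxin-resistant clinical P. aeruginosa isolate PA-1646. Compounds tested as trifluoroacetate salts, one as sulfate salt; values in mg/L.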

[11] = AB-1649, polymyxin-resistant clinical isolate of
[12] = PA-1646, polymyxin-resistant clinical isolate of
[13] = A. baumannii AB-3167, overnight incubation, lower of duplicate values, trifluoroacetate salt (Example 1 and PMB sulfate)

Row | SMILES | CC50 at 24 h [1] [µM] | KP-3700 MIC [2] [µg/mL] | PA01 MIC ([3]; strain) [µg/mL] | AB-1649 MIC [4, 11] [µg/mL] | AB-3167 MIC ([5]; AB-3167, clinical isolate of) [µg/mL] | PA-1646 MIC [6, 12] [µg/mL] | EC-1 MIC [7] [µg/mL] | KP-5016 MIC [8] [µg/mL] | AB-1649 MBC [9, 11] [µg/mL] | PA-1646 MBC [10, 12] [µg/mL] | AB-3167 MIC [5, 13] [µg/mL] | CC50 [1] [µM] | CC50 at 24 h ([1]; hRPTEC, 24 hours treatment, LDH release, Toxic Concentration 50%, read-out: hRPTEC TC50) [µM] | PA01 MIC ([3]; P. aeruginosa PA01, overnight incubation, lower of duplicate values, trifluoroacetate salt (Example 1 and PMB sulfate)) [µg/mL] | AB-1649 MIC ([4]; A. baumannii AB-1649, overnight incubation, lower of duplicate values, trifluoroacetate salt (Example 1 and PMB sulfate)) [µg/mL] | PA-1646 MIC ([6]; P. aeruginosa PA-1646, overnight incubation, lower of duplicate values, trifluoroacetate salt (Example 1 and PMB sulfate)) [µg/mL] | AB-1649 MBC ([9]; A. baumannii AB-1649, tested as trifluoroacetate salt (Example 1 and PMB as sulfate salt)) [µg/mL] | PA-1646 MBC ([10]; P. aeruginosa PA-1646, tested as trifluoroacetate salt (Example 1 and PMB as sulfate salt)) [µg/mL]
1 | CC(C)C[C@@H]1NC(=O)[C@@H](Cc2ccccc2)NC(=O)[C@H](CCN)NC(=O)[C@@H](NC(=O)[C@H](CN)NC(=O)[C@H](CO)NC(=O)[C@H](CCN)NC(=O)c2ccnc(-c3ccccc3)c2)CCNC(=O)[C@H]([C@@H](C)O)NC(=O)[C@H](CCN)NC(=O)[C@H](CCN)NC1=O [Example 46] ({Isonicotinoyl(2-Ph)}-[Dab]S[Dap][Dab][Dab][dF]L[Dab][Dab]T; lactam 4-C) | 98 | 0.5 | 0.5 | 4 | 1 | 64 | 0.25 | 64 |  |  |  |  |  |  |  |  |  | 
2 | CC(C)C[C@@H]1NC(=O)[C@@H](Cc2ccccc2)NC(=O)[C@H](CCN)NC(=O)[C@@H](NC(=O)[C@@H](CN)NC(=O)[C@@H](NC(=O)[C@H](CCN)NC(=O)c2ccnc(-c3ccccc3)c2)[C@@H](C)O)CCNC(=O)[C@H]([C@@H](C)O)NC(=O)[C@H](CCN)NC(=O)[C@H](CCN)NC1=O [Example 47] ({Isonicotinoyl(2-Ph)}-[Dab]T[dDap][Dab][Dab][dF]L[Dab][Dab]T; lactam 4-C) | 100 | 0.25 | 0.5 | 4 | 0.5 | 1 | 0.25 | 8 | 4 | 2 |  |  |  |  |  |  |  | 
3 | CC[C@H](C)[C@@H]1NC(=O)[C@@H](Cc2ccccc2)NC(=O)[C@H](CCN)NC(=O)[C@@H](NC(=O)[C@H](CN)NC(=O)[C@@H](NC(=O)[C@H](CCN)NC(=O)c2ccnc(-c3cccc(Cl)c3)c2)[C@@H](C)O)CCNC(=O)[C@H]([C@@H](C)O)NC(=O)[C@H](CCN)NC(=O)[C@H](CCN)NC1=O [Example 48] (X3-[Dab]T[Dap][Dab][Dab][dF]I[Dab][Dab]T; lactam 4-C) | 33 | 0.25 | 0.5 | 0.5 | 0.25 | 1 | 0.25 | 32 | 0.5 | 2 |  |  |  |  |  |  |  | 
4 | CC[C@H](C)[C@@H]1NC(=O)[C@@H](Cc2ccccc2)NC(=O)[C@H](CCN)NC(=O)[C@@H](NC(=O)[C@H](CN)NC(=O)[C@@H](NC(=O)[C@H](CCN)NC(=O)c2ccnc(-c3ccccc3)c2)[C@@H](C)O)CCNC(=O)[C@H]([C@@H](C)O)NC(=O)[C@H](CCN)NC(=O)[C@H](CCN)NC1=O [Example 49] ({Isonicotinoyl(2-Ph)}-[Dab]T[Dap][Dab][Dab][dF]I[Dab][Dab]T; lactam 4-C) | > 100 | 0.25 | 0.5 | 0.25 |  | 4 | 0.125 | 16 | 0.25 | 8 | 0.125 |  |  |  |  |  |  | 
5 | CC(C)C[C@@H]1NC(=O)[C@@H](Cc2ccccc2)NC(=O)[C@H](CCN)NC(=O)[C@@H](NC(=O)[C@H](CCN)NC(=O)[C@@H](N)[C@@H](C)O)CCNC(=O)[C@H]([C@@H](C)O)NC(=O)[C@H](CCN)NC(=O)[C@H](CCN)NC1=O [Nona, polymyxin B nonapeptide, reference compound] (H-T[Dab][Dab][Dab][dF]L[Dab][Dab]T; lactam 3-C (inferred)) |  | >64 | >64 | >64 | >64 | >64 | >64 | >64 | >64 | >64 |  | > 100 |  |  |  |  |  | 
6 | CC[C@H](C)CCCCC(=O)N[C@@H](CCN)C(=O)N[C@H](C(=O)N[C@@H](CCN)C(=O)N[C@H]1CCNC(=O)[C@H]([C@@H](C)O)NC(=O)[C@H](CCN)NC(=O)[C@H](CCN)NC(=O)[C@H](CC(C)C)NC(=O)[C@@H](Cc2ccccc2)NC(=O)[C@H](CCN)NC1=O)[C@@H](C)O [PMB1, polymyxin B1, reference compound] (X1-[Dab]T[Dab][Dab][Dab][dF]L[Dab][Dab]T; lactam 4-C) |  | 0.5 |  |  |  |  | 0.125 | 16 |  |  | 0.25 |  | 28 | 0.5 | 4 | 4 | 4 | 16
